We go through 22 compounds from US12171756B2, “NLRP3 modulators” (Innate Tumor Immunity, Inc., priority 2017, dated 2024).

Assay [1] concerns IL-1β production in PMA-differentiated THP-1 cells. The experiment in a line: Measurement of IL-1β production in PMA-differentiated THP-1 cells (ELISA, 4 hours). It counts as cell-based, human. Particulars: Homo sapiens, THP-1, human IL-1β production, assayed using one or more of the described procedures, read-out: NLRP3 hIL1B IC50. Here is the method:
Measurement of IL-1β Production in PMA-Differentiated THP-1 Cells THP-1 cells were purchased from the American Type Culture Collection and sub-cultured according to instructions from the supplier. Prior to experiments, cells were cultured in RPMI 1640 containing 10% heat inactivated FBS, penicillin (100 units/ml) and streptomycin (100 μg/ml), and maintained in log phase prior to experimental setup. Prior to the experiment THP-1 were treated with PMA (Phorbol 12-myristate 13-acetate) (10 μg/ml) for 24 hours. The day of the experiment the media was removed and attaching cells were treated with trypsin for 2 minutes, cells were then collected, washed with PBS (phosphate buffer saline), spin down, resuspended in 2% heat inactivated FBS with RPMI at a concentration of 1×10^6 cells/ml, and 100 μl was plated in a 96 well plate. Compounds were dissolved in dimethyl sulfoxide (DMSO) and added to the culture medium to achieve desired concentration (e.g. 100, 30, 10, 3, 1, 0.3 or 0.1 μM). Cells were incubated with compounds for 4 hours. Cell free supernatant was collected and the production of IL-1β was evaluated by ELISA. A vehicle only control was run concurrently with each experiment. Final DMSO concentration was 1%.

In assay [2] the target is T1, human TLR7 (Homo sapiens, UniProt Q9NYK1).
T1 construct: host or cells: human HEK-Blue cells (HEK293-derived) co-expressing TLR7 and an NF-kB/AP1-inducible SEAP reporter
T1 sequence (Q9NYK1 27-1049): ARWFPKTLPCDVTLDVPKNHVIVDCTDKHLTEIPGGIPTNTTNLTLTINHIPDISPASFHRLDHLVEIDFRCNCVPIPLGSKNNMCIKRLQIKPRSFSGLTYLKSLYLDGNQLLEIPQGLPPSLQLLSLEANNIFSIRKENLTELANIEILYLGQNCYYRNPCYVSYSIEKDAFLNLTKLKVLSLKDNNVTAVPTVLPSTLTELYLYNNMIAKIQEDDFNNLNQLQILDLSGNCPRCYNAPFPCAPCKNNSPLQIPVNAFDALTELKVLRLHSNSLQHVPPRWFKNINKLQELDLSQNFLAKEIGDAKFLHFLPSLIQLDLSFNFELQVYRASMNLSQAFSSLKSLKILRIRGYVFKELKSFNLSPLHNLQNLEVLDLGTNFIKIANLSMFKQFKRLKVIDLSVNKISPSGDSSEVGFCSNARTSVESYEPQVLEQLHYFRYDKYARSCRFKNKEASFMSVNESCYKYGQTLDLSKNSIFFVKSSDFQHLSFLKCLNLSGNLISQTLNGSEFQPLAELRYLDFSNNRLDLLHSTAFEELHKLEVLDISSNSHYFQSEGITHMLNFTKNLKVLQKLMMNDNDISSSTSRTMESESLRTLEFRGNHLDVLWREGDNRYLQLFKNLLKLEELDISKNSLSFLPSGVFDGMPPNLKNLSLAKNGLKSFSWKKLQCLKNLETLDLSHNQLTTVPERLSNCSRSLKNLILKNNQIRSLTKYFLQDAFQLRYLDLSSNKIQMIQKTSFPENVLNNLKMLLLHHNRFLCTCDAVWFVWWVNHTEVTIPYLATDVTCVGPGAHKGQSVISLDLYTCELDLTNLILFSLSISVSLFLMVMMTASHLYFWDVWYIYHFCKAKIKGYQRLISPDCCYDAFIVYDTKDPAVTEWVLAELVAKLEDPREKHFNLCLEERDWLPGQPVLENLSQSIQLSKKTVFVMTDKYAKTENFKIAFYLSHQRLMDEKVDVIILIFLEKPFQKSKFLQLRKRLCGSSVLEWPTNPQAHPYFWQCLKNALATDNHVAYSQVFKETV
The experiment in a line: In vitro human TLR7 binding reporter assay (HEK-Blue, NF-kB/AP1-inducible SEAP). It counts as cell-based. Particulars: HEK-Blue human TLR7 SEAP reporter cells; activity range classes; read-out: TLR7 Agonist EC50. Here is the method:
(§1) In Vitro Human TLR7 and TLR8 Binding Reporter Assays
(§2) Logarithmically-growing human HEK-Blue cells co-expressing a TLR7 or TLR8 gene and a NF-kB/AP1-inducible SEAP (secreted embryonic alkaline phosphatase; Invivogen, San Diego, CA) reporter gene are added to individual wells of a 384-well plate (15,000 cells per 20 μL per well) and maintained for 24 h at 37° C., 5% CO2. Test compounds or DMSO are distributed to separate wells the next day using acoustic liquid handling technology (100 nL per well) and cells are subsequently incubated for 18 h at 37° C., 5% CO2. Cellular SEAP production is measured using an Envision plate reader instrument thirty minutes after adding freshly-made Quanti-Blue reagent (prepared by following manufacturer instructions; Invivogen, San Diego, CA) to the HEK-Blue TLR Nf-kB-SEAP cell reactions. All EC50 values (half-maximal effective concentration) are determined using proprietary data analysis software. Normalized EC50 value=absolute value determined by setting 100% Ymax using a reference standard RLU (relative light unit) values from cells treated with 50 μM of the reference standard.

The target in assay [3] is T2, human TLR8 (Homo sapiens, UniProt Q9NR97).
T2 construct: host or cells: human HEK-Blue cells (HEK293-derived) co-expressing TLR8 and an NF-kB/AP1-inducible SEAP reporter
T2 sequence (Q9NR97 27-1041): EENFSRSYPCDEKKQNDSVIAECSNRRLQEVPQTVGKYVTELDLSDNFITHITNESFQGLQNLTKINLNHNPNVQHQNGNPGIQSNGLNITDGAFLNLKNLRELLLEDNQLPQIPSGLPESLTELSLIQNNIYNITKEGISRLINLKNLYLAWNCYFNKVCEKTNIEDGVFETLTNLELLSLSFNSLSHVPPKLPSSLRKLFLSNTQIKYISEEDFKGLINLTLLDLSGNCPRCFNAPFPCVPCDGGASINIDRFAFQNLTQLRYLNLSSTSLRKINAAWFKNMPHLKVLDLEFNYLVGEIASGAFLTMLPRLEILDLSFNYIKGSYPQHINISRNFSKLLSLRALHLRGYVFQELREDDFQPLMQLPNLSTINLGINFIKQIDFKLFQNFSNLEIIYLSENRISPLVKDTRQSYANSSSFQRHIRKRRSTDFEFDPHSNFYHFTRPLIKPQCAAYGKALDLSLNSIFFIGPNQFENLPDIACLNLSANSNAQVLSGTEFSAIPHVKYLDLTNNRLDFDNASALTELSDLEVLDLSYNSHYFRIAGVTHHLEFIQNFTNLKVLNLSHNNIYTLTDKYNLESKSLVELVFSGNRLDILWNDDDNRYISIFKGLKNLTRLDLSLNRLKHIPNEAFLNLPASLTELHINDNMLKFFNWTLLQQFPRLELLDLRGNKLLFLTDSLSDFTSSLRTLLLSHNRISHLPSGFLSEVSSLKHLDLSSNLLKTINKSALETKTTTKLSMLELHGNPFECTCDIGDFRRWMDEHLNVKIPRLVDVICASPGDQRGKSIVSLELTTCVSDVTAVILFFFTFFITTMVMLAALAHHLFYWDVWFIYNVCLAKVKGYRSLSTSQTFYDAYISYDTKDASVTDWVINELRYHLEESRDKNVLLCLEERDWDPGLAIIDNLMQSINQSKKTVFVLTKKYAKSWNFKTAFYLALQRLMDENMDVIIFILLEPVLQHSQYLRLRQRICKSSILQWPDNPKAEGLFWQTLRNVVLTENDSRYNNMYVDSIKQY
The experiment in a line: In vitro human TLR8 binding reporter assay (HEK-Blue, NF-kB/AP1-inducible SEAP). Particulars: HEK-Blue human TLR8 SEAP reporter cells; activity range classes; read-out: TLR8 Agonist EC50. It counts as cell-based. Here is the method: as §1, §2

Take `Nc1nc2cc(-c3cc[nH]n3)ccc2cc1CCCCCOCc1ccccc1` [Compound 106, 3-[5-(benzyloxy)pentyl]-7-(1H-pyrazol-3-yl)quinolin-2-amine]: the half-inhibitory concentration (IC50) in assay [1] came to 3.82 µM. Further, the EC50 in assay [2] and in assay [3] was more than 100 µM each time.
With `CC(=O)NCCCCc1cc2ccc(-c3cc[nH]n3)cc2nc1N` [Compound 109], the IC50 in assay [1] is 4.33 µM. Besides, the EC50 in assay [2] and in assay [3] was more than 100 µM in each case.
With `CCNCCCc1cc2ccc(-c3cc[nH]n3)cc2nc1N` [Compound 110, 3-[3-(ethylamino)propyl]-7-(1H-pyrazol-3-yl)quinolin-2-amine], in assay [1], the half-inhibitory concentration (IC50) was found to be 1.64 µM. In addition, the EC50 in assay [2] and in assay [3] was more than 100 µM in each case.
Take `CCN(CCCCc1cc2ccc(-c3cc[nH]n3)cc2nc1N)C(C)=O` [Compound 111]: in assay [1], the IC50 amounted to 2.46 µM. The EC50 in assay [2] and in assay [3] was more than 100 µM in each case.
For the compound `CCN(CCCc1cc2ccc(-c3cc[nH]n3)cc2nc1N)C(C)=O` [Compound 112, N-[3-[2-amino-7-(1H-pyrazol-3-yl)quinolin-3-yl]propyl]-N-ethylacetamide], in assay [1], the IC50 stood at 2.56 µM. For the same compound, the EC50 in assay [2] and in assay [3] was more than 100 µM in each case.
On to `COCc1cc2ccc(-c3ccn[nH]3)cc2nc1N` [Compound 113, 3-(methoxymethyl)-7-(1H-pyrazol-5-yl)quinolin-2-amine], for which, in assay [1], the IC50 stood at 11.9 µM. The EC50 in assay [2] and in assay [3] was more than 100 µM in each case.
For `Nc1nc2cc(-c3ccn[nH]3)ccc2cc1CCCN1CCCCC1` [Compound 114], in assay [1], the IC50 worked out at 4.25 µM. The EC50 in assay [2] and in assay [3] was more than 100 µM each time.
`Nc1nc2cc(-c3ccn[nH]3)ccc2cc1CN1CCOCC1` [Compound 115]: in assay [1], the half-maximal inhibitory concentration (IC50) was found to be 3.04 µM. Further, the half-maximal effective concentration (EC50) in assay [2] and in assay [3] was more than 100 µM in each case.
In the case of `Nc1nc2cc(-c3ccn[nH]3)ccc2cc1C1CCOCC1` [Compound 116], in assay [1], the IC50 was 4.07 µM. For the same compound, the EC50 in assay [2] and in assay [3] was more than 100 µM in each case.
On to `CN(C)C1CCN(Cc2cc3ccc(-c4ccn[nH]4)cc3nc2N)CC1` [Compound 118], for which the IC50 in assay [1] stood at 1.73 µM. Moreover, the EC50 in assay [2] and in assay [3] was more than 100 µM throughout.
Consider `Nc1nc2cc(-c3ccn[nH]3)ccc2cc1CN1CCCC1=O` [Compound 119], for which the IC50 in assay [1] was found to be 3.07 µM. For the same compound, the EC50 in assay [2] is more than 100 µM; in assay [3], 20 to 100 µM.
Consider `Nc1nc2cc(-c3ccn[nH]3)ccc2cc1C(=O)Nc1cccnc1` [Compound 124], for which the IC50 in assay [1] was determined as 14.5 µM. Besides, the EC50 in assay [2] and in assay [3] was more than 100 µM throughout.
Regarding `Nc1nc2cc(-c3ccn[nH]3)ccc2cc1-c1ccc2[nH]ncc2c1` [Compound 127], the IC50 in assay [1] turned out to be 1.15 µM. Besides, the EC50 in assay [2] and in assay [3] was more than 100 µM throughout.
In the case of `Nc1cc(NCc2cc[nH]n2)c2ccc(-c3ccn[nH]3)cc2n1` [Compound 128, N4-((1H-pyrazol-3-yl)methyl)-7-(1H-pyrazol-5-yl)quinoline-2,4-diamine], the IC50 in assay [1] amounted to 0.1 µM. In addition, the EC50 in assay [2] and in assay [3] was more than 100 µM throughout.
With `COc1cccc(C(C)Nc2cc(N)nc3cc(-c4ccn[nH]4)ccc23)n1` (stereo not drawn) [Compound 129, N4-(1-(6-methoxypyridin-2-yl)ethyl)-7-(1H-pyrazol-5-yl)quinoline-2,4-diamine], the half-maximal inhibitory concentration (IC50) in assay [1] was 2.29 µM. Moreover, the EC50 in assay [2] and in assay [3] was more than 100 µM throughout.
Take `Nc1cc(N2CCOCC2)c2ccc(-c3ccn[nH]3)cc2n1` [Compound 131]: the IC50 in assay [1] was found to be 0.85 µM. The concentration giving a half-maximal response (EC50) in assay [2] and in assay [3] was more than 100 µM throughout.
`C[C@@H](O)CNc1cc(N)nc2cc(-c3ccn[nH]3)ccc12` [Compound 133]: in assay [1], the IC50 was 0.3 µM. Also, the EC50 in assay [2] and in assay [3] was more than 100 µM each time.
With `C[C@H](O)CNc1cc(N)nc2cc(-c3ccn[nH]3)ccc12` [Compound 134], the IC50 in assay [1] is 0.29 µM. The EC50 in assay [2] and in assay [3] was more than 100 µM in each case.
With `Nc1cc(NCc2ccccn2)c2ccc(-c3ccn[nH]3)cc2n1` [Compound 135], the IC50 in assay [1] amounted to 0.12 µM. For the same compound, the EC50 in assay [2] and in assay [3] was more than 100 µM each time.
`CN(CCO)c1cc(N)nc2cc(-c3ccn[nH]3)ccc12` [Compound 136]: the IC50 in assay [1] is 3.02 µM. Also, the EC50 in assay [2] and in assay [3] was more than 100 µM throughout.
Regarding `Nc1cc(NCC2CCOCC2)c2ccc(-c3ccn[nH]3)cc2n1` [Compound 137], the IC50 in assay [1] is 0.55 µM. In addition, the EC50 in assay [2] and in assay [3] was more than 100 µM each time.
For the compound `CN(C)C(=O)CCNc1cc(N)nc2cc(-c3ccn[nH]3)ccc12` [Compound 138], the IC50 in assay [1] was determined as 5.95 µM. The EC50 was 1 to 20 µM in assay [2] and more than 100 µM in assay [3].
